Test results reported in ChEMBL document CHEMBL3393039, “Anthranilic acid derivatives as nuclear receptor modulators--development of novel PPAR selective and dual PPAR/FXR ligands” (Bioorg Med Chem, 2015).
Active and inactive are the calls of the source. No cut-off for these calls is given here.

Key:
[1] = biological target: T1, Peroxisome proliferator-activated receptor alpha (Homo sapiens) (UniProt Q07869); experiment: Transactivation of Gal4-tagged PPARalpha ligand binding domain (unknown origin) expressed in COS7 cells at 10 uM measured after overnight incubation by luciferase reporter gene assay; type: cell-based; conditions: COS-7
T1 sequence (whole entry): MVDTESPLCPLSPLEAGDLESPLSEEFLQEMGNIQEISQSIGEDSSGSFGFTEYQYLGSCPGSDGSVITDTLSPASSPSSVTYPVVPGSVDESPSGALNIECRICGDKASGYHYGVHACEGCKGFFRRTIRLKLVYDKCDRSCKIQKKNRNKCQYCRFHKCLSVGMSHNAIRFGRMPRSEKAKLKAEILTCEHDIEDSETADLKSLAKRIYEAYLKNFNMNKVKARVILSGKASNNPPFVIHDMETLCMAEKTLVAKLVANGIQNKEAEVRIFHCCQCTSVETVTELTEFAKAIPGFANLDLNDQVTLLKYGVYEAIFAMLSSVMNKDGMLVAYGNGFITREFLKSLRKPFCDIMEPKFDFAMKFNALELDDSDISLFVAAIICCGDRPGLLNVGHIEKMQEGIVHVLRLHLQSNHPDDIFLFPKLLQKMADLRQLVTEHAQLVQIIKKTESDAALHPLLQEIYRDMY

[2] = biological target: T2, Peroxisome proliferator-activated receptor gamma (Homo sapiens, UniProt P37231); experiment: Transactivation of Gal4-tagged PPARgamma ligand binding domain (unknown origin) expressed in COS7 cells measured after overnight incubation by luciferase reporter gene assay; type: cell-based, COS-7
T2 sequence (P37231 whole entry): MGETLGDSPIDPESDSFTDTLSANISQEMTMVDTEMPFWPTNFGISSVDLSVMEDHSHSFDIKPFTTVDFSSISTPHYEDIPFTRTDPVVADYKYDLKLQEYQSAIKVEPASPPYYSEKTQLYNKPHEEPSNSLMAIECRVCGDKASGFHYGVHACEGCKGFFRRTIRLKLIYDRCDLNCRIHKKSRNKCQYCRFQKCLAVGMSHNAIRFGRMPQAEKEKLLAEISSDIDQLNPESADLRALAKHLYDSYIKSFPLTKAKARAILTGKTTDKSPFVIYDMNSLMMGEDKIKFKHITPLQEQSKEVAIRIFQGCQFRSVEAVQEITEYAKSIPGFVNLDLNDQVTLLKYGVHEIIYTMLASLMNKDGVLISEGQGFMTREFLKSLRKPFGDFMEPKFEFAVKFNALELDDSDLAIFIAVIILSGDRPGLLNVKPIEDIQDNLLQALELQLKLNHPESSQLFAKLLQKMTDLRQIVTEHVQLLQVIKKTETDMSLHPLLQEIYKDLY

[3] = biological target: T3, Peroxisome proliferator-activated receptor delta (Homo sapiens) (UniProt Q03181); experiment: Transactivation of Gal4-tagged PPARdelta ligand binding domain (unknown origin) expressed in COS7 cells at 30 uM measured after overnight incubation by luciferase reporter gene assay; type: cell-based; conditions: COS-7
T3 sequence (whole entry): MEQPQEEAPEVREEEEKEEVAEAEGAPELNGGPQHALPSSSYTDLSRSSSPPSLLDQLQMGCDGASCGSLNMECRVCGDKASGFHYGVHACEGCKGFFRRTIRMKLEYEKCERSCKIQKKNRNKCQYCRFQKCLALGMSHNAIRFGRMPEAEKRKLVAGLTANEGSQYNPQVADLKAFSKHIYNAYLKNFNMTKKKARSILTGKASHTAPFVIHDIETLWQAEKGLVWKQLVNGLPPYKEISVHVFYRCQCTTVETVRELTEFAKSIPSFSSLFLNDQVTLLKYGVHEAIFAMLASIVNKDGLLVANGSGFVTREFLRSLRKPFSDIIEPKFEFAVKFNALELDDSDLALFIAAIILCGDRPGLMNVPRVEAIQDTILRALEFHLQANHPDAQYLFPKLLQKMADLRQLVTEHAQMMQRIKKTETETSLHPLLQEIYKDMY

[4] = biological target: T4, Bile acid receptor (Homo sapiens) (UniProt Q96RI1); experiment: Transactivation of human FXR expressed in human HeLa cells incubated for 24 hrs by luciferase reporter gene assay relative to GW4064; type: cell-based
T4 sequence (whole entry): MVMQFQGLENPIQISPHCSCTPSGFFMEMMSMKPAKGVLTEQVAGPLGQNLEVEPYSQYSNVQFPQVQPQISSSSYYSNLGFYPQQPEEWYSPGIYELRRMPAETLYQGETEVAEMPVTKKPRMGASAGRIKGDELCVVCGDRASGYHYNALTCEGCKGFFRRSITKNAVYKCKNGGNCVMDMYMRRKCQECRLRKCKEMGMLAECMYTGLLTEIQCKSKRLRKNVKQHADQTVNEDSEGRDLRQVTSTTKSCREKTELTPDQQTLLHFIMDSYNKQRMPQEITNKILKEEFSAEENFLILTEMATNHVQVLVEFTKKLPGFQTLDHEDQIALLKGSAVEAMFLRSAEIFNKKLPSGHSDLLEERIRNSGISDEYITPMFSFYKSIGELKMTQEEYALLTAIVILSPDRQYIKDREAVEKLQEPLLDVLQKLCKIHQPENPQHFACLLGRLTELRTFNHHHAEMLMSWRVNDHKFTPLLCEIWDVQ

[5] = biological target: T5, Peroxisome proliferator-activated receptor gamma (Homo sapiens) (UniProt P37231); experiment: Transactivation of Gal4-tagged PPARgamma ligand binding domain (unknown origin) expressed in COS7 cells measured after overnight incubation by luciferase reporter gene assay relative to piaglitazone; type: cell-based; conditions: Chlorocebus aethiops; COS-7
T5 sequence (whole entry): T2 sequence (P37231 whole entry)

[6] = biological target: T3, Peroxisome proliferator-activated receptor delta (Homo sapiens); experiment: Transactivation of Gal4-tagged PPARdelta ligand binding domain (unknown origin) expressed in COS7 cells measured after overnight incubation by luciferase reporter gene assay relative to L165,041; type: cell-based; conditions: Chlorocebus aethiops; COS-7
[7] = biological target: T6, Peroxisome proliferator-activated receptor delta (Homo sapiens, UniProt Q03181); experiment: Transactivation of Gal4-tagged PPARdelta ligand binding domain (unknown origin) expressed in COS7 cells measured after overnight incubation by luciferase reporter gene assay; type: cell-based, COS-7
T6 sequence (Q03181 whole entry): T3 sequence (whole entry)

[8] = biological target: T7, Peroxisome proliferator-activated receptor alpha (Homo sapiens, UniProt Q07869); experiment: Transactivation of Gal4-tagged PPARalpha ligand binding domain (unknown origin) expressed in COS7 cells measured after overnight incubation by luciferase reporter gene assay; type: cell-based, COS-7
T7 sequence (Q07869 whole entry): T1 sequence (whole entry)

Bile acid receptor = biological target: T8, Bile acid receptor (Homo sapiens, UniProt Q96RI1); experiment: Transactivation of human FXR expressed in human HeLa cells incubated for 24 hrs by luciferase reporter gene assay; type: cell-based
T8 sequence (Q96RI1 whole entry): T4 sequence (whole entry)

[9] = biological target: T5, Peroxisome proliferator-activated receptor gamma (Homo sapiens); experiment: Transactivation of Gal4-tagged PPARgamma ligand binding domain (unknown origin) expressed in COS7 cells at 10 uM measured after overnight incubation by luciferase reporter gene assay; type: cell-based; conditions: COS-7
[10] = biological target: T4, Bile acid receptor (Homo sapiens); experiment: Transactivation of human FXR expressed in human HeLa cells at 30 uM incubated for 24 hrs by luciferase reporter gene assay; type: cell-based
[11] = biological target: T1, Peroxisome proliferator-activated receptor alpha (Homo sapiens); experiment: Transactivation of Gal4-tagged PPARalpha ligand binding domain (unknown origin) expressed in COS7 cells at 30 uM measured after overnight incubation by luciferase reporter gene assay; type: cell-based; conditions: COS-7
[12] = biological target: T5, Peroxisome proliferator-activated receptor gamma (Homo sapiens); experiment: Transactivation of Gal4-tagged PPARgamma ligand binding domain (unknown origin) expressed in COS7 cells at 30 uM measured after overnight incubation by luciferase reporter gene assay; type: cell-based; conditions: COS-7

Row | Structure (SMILES) | max activation [1] [%] | EC50 [2] [µM] | Activity [3] | max activation [4] [%] | max activation [5] [%] | max activation [6] [%] | EC50 [7] [µM] | EC50 [8] [µM] | max activation [9] [%] | Activity [10] | further results
1 | CC(C)(C)c1ccc(C(=O)Nc2ccccc2C(=O)Nc2cc(C(=O)O)ccc2Cl)cc1 | 16 | 1.9 | inactive | 16 | 154 |  |  |  |  |  | 
2 | O=C(O)Cc1cccc(NC(=O)c2ccccc2NC(=O)c2ccc(SC(F)(F)F)cc2)c1 |  | 4.4 |  | 23 | 158 | 64 | 2.3 | 1.3 |  |  | EC50 (Bile acid receptor): 7 µM
3 | O=C(O)c1cccc(NC(=O)c2ccccc2NC(=O)c2cc(C(F)(F)F)cc(C(F)(F)F)c2)c1 | 15 | 11 | inactive |  | 114 |  |  |  |  | inactive | 
4 | O=C(O)c1ccc(CNC(=O)c2ccccc2NC(=O)c2ccc3ccccc3c2)cc1 | 17 |  | inactive |  |  |  |  |  | 56 |  | 
5 | COc1ccc(C(=O)Nc2ccccc2C(=O)Nc2cccc(CC(=O)O)c2)cc1 | 17.3 |  |  |  |  | 54 | 5.9 |  | 13.2 | inactive | 
6 | CCc1ccc(C(=O)Nc2ccccc2C(=O)NCCCC(=O)O)cc1 |  |  | inactive |  |  |  |  | 15.7 | 39 |  | 

The next lines start with results.

Row | max activation [1] [%] | EC50 [2] [µM] | Activity [3] | max activation [4] [%] | max activation [5] [%] | max activation [6] [%] | EC50 [7] [µM] | EC50 [8] [µM] | max activation [9] [%] | Activity [10] | Structure (SMILES) | further results
7 | 38 |  | inactive |  |  |  |  |  | 40 |  | O=C(O)CCCCCNC(=O)c1ccccc1NC(=O)c1ccc2ccccc2c1 | 
8 |  | 8.7 |  | 17.8 | 420 | 16.5 | 3.4 | 18.6 |  |  | O=C(O)c1cccc(NC(=O)c2ccc(Cl)cc2NC(=O)c2ccc(C(F)(F)F)cc2)c1 | EC50 (Bile acid receptor): 2.1 µM
9 |  |  | inactive |  |  |  |  |  | 25 |  | O=C(O)Cc1ccc(NC(=O)c2ccccc2NC(=O)c2ccc3ccccc3c2)cc1 | Activity [11]: inactive
10 |  |  | inactive |  |  |  |  |  |  | inactive | CC(C)(C)c1ccc(C(=O)Nc2cccc(Cl)c2C(=O)Nc2cccc(C(=O)O)c2)cc1 | Activity [12]: inactive; Activity [11]: inactive
